The values that follow come from patent publication US10604554B2, “Double-acylated GLP-1 derivatives” (Novo Nordisk A/S, priority 2012, dated 2020).

Data set [1] has as its system Landrace Yorkshire Duroc (LYD) pigs. In words: Pharmacodynamic (PD) study in pigs, food intake. Type of data set: in vivo, pig. The note with it: single s.c. dose 3.0 nmol/kg; for PD in pig, food intake (% of vehicle) for hours 0-24: 0-24 h; for PD in pig, food intake (% of vehicle) for hours 24-48: 24-48 h. The procedure: The purpose of this experiment was to investigate the effect of a couple of Example compounds on food intake in pigs. This was done in a pharmacodynamic (PD) study as described below, in which food intake was measured from 1 to 4 days after administration of a single dose of the GLP-1 derivative, as compared to a vehicle-treated control group.
Female Landrace Yorkshire Duroc (LYD) pigs, approximately 3 months of age, weighing approximately 30-35 kg were used (n=3-4 per group). The animals were housed in a group for approximately 1 week during acclimatisation to the animal facilities. During the experimental period the animals were placed in individual pens at least 2 days before dosing and during the entire experiment for measurement of individual food intake. The animals were fed ad libitum with pig fodder (Svinefoder Danish Top) at all times both during the acclimatisation and the experimental period. Food intake was monitored on line by logging the weight of fodder every 15 minutes. The system used was Mpigwin (Ellegaard Systems, Faaborg, Denmark).
The phosphate buffer serves as vehicle. Animals are dosed with a single subcutaneous dose of the GLP-1 derivative or vehicle (dose volume 0.025 ml/kg) on the morning of day 1, and food intake is measured for 1 day after dosing. On the last day of each study, 1-4 days after dosing, a blood sample for measurement of plasma exposure of the GLP-1 derivative is taken from the heart in anaesthetised animals. The animals are thereafter euthanised with an intra-cardial overdose of pentobarbitone.
Food intake is calculated as mean±SEM food intake in 24 h intervals (0-24 h, 24-48 h, and 48-72 h). In Table 6 below the food intake is indicated as percentage of the food intake of the vehicle group in the same time interval (dosage 3.0 nmol/kg).
Statistical comparisons of the food intake in the 24 h intervals in the vehicle vs. GLP-1 derivative group are done using two-way-ANOVA repeated measures, followed by Bonferroni post-test.

A short description of data set [2]: Pharmacokinetic (PK) study in minipig. The note with it: male, Göttingen, in vivo, iv.
Protocol: The purpose of this study is to determine the protraction in vivo of the GLP-1 derivatives after i.v. administration to minipigs, i.e. the prolongation of their time of action. This is done in a pharmacokinetic (PK) study, where the terminal half-life of the derivative in question is determined. By terminal half-life is generally meant the period of time it takes to halve a certain plasma concentration, measured after the initial distribution phase.
Study A: Male Göttingen minipigs were obtained from Ellegaard Göttingen Minipigs (Dalmose, Denmark) approximately 7-14 months of age and weighing from approximately 16-35 kg were used in the studies. The minipigs were housed individually and fed restrictedly once or twice daily with SDS minipig diet (Special Diets Services, Essex, UK). After at least 2 weeks of acclimatisation two permanent central venous catheters were implanted in vena cava caudalis or cranialis in each animal. The animals were allowed 1 week recovery after the surgery, and were then used for repeated pharmacokinetic studies with a suitable wash-out period between successive GLP-1 derivative dosings.
The animals were fasted for approximately 18 h before dosing and from 0 to 4 h after dosing, but had ad libitum access to water during the whole period.
The GLP-1 derivatives were dissolved in 50 mM sodium phosphate, 145 mM sodium chloride, 0.05% tween 80, pH 7.4 to a concentration of usually from 20-60 nmol/ml. […] Blood samples (for example 0.8 ml) were collected in EDTA buffer (8 mM) and then centrifuged at 4° C. and 1942 G for 10 minutes.
Study B: Male Göttingen minipigs were obtained from Ellegaard Göttingen Minipigs (Dalmose, Denmark) approximately 5 months of age and weighing from approximately 9 kg were used in the studies. The minipigs were housed in pens with straw as bedding, six together in each pen and fed restrictedly once or twice daily with Altromin 9023 minipig diet (Chr. Petersen A/S, DK-4100 Ringsted) or Standard SMP(E) minipig diet (Special Diet Services (SDS), UK). The pigs were used for repeated pharmacokinetic studies with a suitable wash-out period between successive GLP-1 derivative dosings.
The GLP-1 derivatives were dissolved in 50 mM sodium phosphate, 145 mM sodium chloride, 0.05% tween 80, pH 7.4 to a concentration of usually from 20-60 nmol/ml. Intravenous injections (the volume corresponding to usually 2 nmol/kg, for example 0.1 ml/kg) of the compounds were given as intravenous injections via a Venflon inserted in an ear vein, while they are placed unanaesthetised in a sling. The dose volume was 0.1 ml/kg, and blood was sampled at predefined time points for up till 17 days post dosing (samples was taken with syringe from a jugular vein).
Individual plasma concentration-time profiles were analyzed by a non-compartmental model in Phoenix WinNonLin ver. […] (Pharsight Inc., Mountain View, Calif., USA), and the resulting terminal half-lives (harmonic mean) determined.
A further data set deals with T1, human GLP-1 receptor (Homo sapiens, UniProt P43220).
T1 construct: expressed in transfected cells; host or cells: BHK cells, clone FCW467-12A/KZ10-1 (parent line BHKTS13), further transfected with CRE luciferase
In words: In vitro potency (AlphaScreen cAMP, membranes). Type of data set: biochemical. The method in brief:
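AlphaScreen competition read-out (anti-cAMP acceptor beads vs biotinylated cAMP, 3 h room temperature) quantified cAMP made by human GLP-1 receptor membranes, 6 μg/well, from stably transfected BHK467-12A cells. Buffer pH 7.4 contained 1 mM ATP, 1 μM GTP, 0.5 mM IBMX and 0.1% BSA; cAMP standard curve included.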
On the technique in general: In Alpha technology, singlet oxygen from a donor bead excites a nearby acceptor bead.

A short description of data set [3]: Pharmacokinetic (PK) study in rat. The note with it: male, Sprague Dawley, in vivo, iv, 6 nmol/kg.
A short description of another data set: in vivo. To be noted: male, Sprague Dawley, rat, iv.

Each structure is given as a SMILES string. pEC50: −log10 of the molar value. Like-named read-outs stand apart in the source and are kept apart here.

What is called half-life is how long it takes for the measured level to halve. A high value points to slow loss. Usually pEC50 stands for the EC50 on a negative log10 scale, so that one unit is a factor of ten.

T1 sequence (P43220 24-463): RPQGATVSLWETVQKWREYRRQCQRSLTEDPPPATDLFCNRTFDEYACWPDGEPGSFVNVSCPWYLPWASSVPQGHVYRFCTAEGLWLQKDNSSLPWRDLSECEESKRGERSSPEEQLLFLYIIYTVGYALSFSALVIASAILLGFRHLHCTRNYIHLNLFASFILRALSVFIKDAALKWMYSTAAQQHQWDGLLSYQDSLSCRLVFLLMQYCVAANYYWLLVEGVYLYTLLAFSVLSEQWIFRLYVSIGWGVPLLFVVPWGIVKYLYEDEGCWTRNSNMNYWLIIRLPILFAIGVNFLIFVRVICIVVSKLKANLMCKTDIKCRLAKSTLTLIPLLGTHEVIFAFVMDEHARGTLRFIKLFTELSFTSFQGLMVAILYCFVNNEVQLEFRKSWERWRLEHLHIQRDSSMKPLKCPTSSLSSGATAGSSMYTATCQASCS

Take `CC[C@H](C)[C@H](NC(=O)[C@H](Cc1ccccc1)NC(=O)[C@H](CCC(=O)O)NC(=O)[C@H](CCCCNC(=O)[C@@H](N)CCCCNC(=O)[C@@H](N)CCCCNC(=O)CC[C@H](NC(=O)CC[C@H](NC(=O)CCCCCCCCCCCOc1ccc(C(=O)O)cc1)C(=O)O)C(=O)O)NC(=O)[C@H](C)NC(=O)[C@H](C)NC(=O)[C@H](CCC(N)=O)NC(=O)CNC(=O)[C@H](CCC(=O)O)NC(=O)[C@H](CC(C)C)NC(=O)[C@H](Cc1ccc(O)cc1)NC(=O)[C@H](CO)NC(=O)[C@H](CO)NC(=O)[C@@H](NC(=O)[C@H](CC(=O)O)NC(=O)[C@H](CO)NC(=O)[C@@H](NC(=O)[C@H](Cc1ccccc1)NC(=O)[C@@H](NC(=O)CNC(=O)[C@H](CCC(=O)O)NC(=O)C(C)(C)NC(=O)[C@@H](N)Cc1c[nH]cn1)[C@@H](C)O)[C@@H](C)O)C(C)C)C(=O)N[C@@H](C)C(=O)N[C@@H](Cc1c[nH]c2ccccc12)C(=O)N[C@@H](CC(C)C)C(=O)N[C@H](C(=O)N[C@@H](CCCNC(=N)N)C(=O)NCC(=O)N[C@@H](CCCNC(=N)N)C(=O)N[C@@H](CCCCNC(=O)[C@@H](N)CCCCNC(=O)[C@@H](N)CCCCNC(=O)CC[C@H](NC(=O)CC[C@H](NC(=O)CCCCCCCCCCCOc1ccc(C(=O)O)cc1)C(=O)O)C(=O)O)C(=O)O)C(C)C` [Example 16, N^ε26-[(2S)-2-amino-6-[[(2S)-2-amino-6-[[(4S)-4-carboxy-4-[[(4S)-4-carboxy-4-[12-(4-carboxyphenoxy)dodecanoylamino]butanoyl]amino]butanoyl]amino]hexanoyl]amino]hexanoyl], N^ε37-[(2S)-2-amino-6-[[(2S)-2-amino-6-[[(4S)-4-carboxy-4-[[(4S)-4-carboxy-4-[12-(4-carboxyphenoxy)dodecanoylamino]butanoyl]amino]butanoyl]amino]hexanoyl]amino]hexanoyl]-[Aib^8,Arg^34,Lys^37]-GLP-1-(7-37)-peptide]: in data set [1], the “PD in pig, food intake (% of vehicle) for hours 0-24” value is on record as 33 % of vehicle and the “PD in pig, food intake (% of vehicle) for hours 24-48” value is recorded as 43 % of vehicle. The compound further gave a half-life in data set [2] of 64 h. The pEC50 at human GLP-1 receptor was 9.81. In data set [3], this compound showed a half-life of 17 h.

As to `CC[C@H](C)[C@H](NC(=O)[C@H](Cc1ccccc1)NC(=O)[C@H](CCC(=O)O)NC(=O)[C@H](CCCCNC(=O)[C@@H](N)CCCCNC(=O)[C@@H](N)CCCCNC(=O)CC[C@H](NC(=O)CCCCCCCNC(=O)CCCCCCCCCOc1ccc(C(=O)O)cc1)C(=O)O)NC(=O)[C@H](C)NC(=O)[C@H](C)NC(=O)[C@H](CCC(N)=O)NC(=O)CNC(=O)[C@H](CCC(=O)O)NC(=O)[C@H](CC(C)C)NC(=O)[C@H](Cc1ccc(O)cc1)NC(=O)[C@H](CO)NC(=O)[C@H](CO)NC(=O)[C@@H](NC(=O)[C@H](CC(=O)O)NC(=O)[C@H](CO)NC(=O)[C@@H](NC(=O)[C@H](Cc1ccccc1)NC(=O)[C@@H](NC(=O)CNC(=O)[C@H](CCC(=O)O)NC(=O)C(C)(C)NC(=O)[C@@H](N)Cc1c[nH]cn1)[C@@H](C)O)[C@@H](C)O)C(C)C)C(=O)N[C@@H](C)C(=O)N[C@@H](Cc1c[nH]c2ccccc12)C(=O)N[C@@H](CC(C)C)C(=O)N[C@H](C(=O)N[C@@H](CCCNC(=N)N)C(=O)NCC(=O)N[C@@H](CCCNC(=N)N)C(=O)N[C@@H](CCCCNC(=O)[C@@H](N)CCCCNC(=O)[C@@H](N)CCCCNC(=O)CC[C@H](NC(=O)CCCCCCCNC(=O)CCCCCCCCCOc1ccc(C(=O)O)cc1)C(=O)O)C(=O)O)C(C)C` [Example 26, N^ε26-[(2S)-2-amino-6-[[(2S)-2-amino-6-[[(4S)-4-carboxy-4-[8-[10-(4-carboxyphenoxy)decanoylamino]octanoylamino]butanoyl]amino]hexanoyl]amino]hexanoyl], N^ε37-[(2S)-2-amino-6-[[(2S)-2-amino-6-[[(4S)-4-carboxy-4-[8-[10-(4-carboxyphenoxy)decanoylamino]octanoylamino]butanoyl]amino]hexanoyl]amino]hexanoyl]-[Aib^8,Arg^34,Lys^37]-GLP-1-(7-37)-peptide], in data set [1], the “PD in pig, food intake (% of vehicle) for hours 0-24” value is recorded as 10 % of vehicle and the “PD in pig, food intake (% of vehicle) for hours 24-48” value is 26 % of vehicle. Besides, the “PD in pig, food intake (% of vehicle) for hours 48-72” value in data set [1] (48-72 h) is recorded as 52 % of vehicle. Besides, in data set [1] (versus vehicle), the “reduction in food intake (in words)” value is reported as “very nice reduction in food intake”. Further, in data set [2], the half-life was 13 h. The compound also gave a pEC50 at human GLP-1 receptor of 9.87. For the same compound, the half-life in data set [3] is 16 h.

Regarding `CC[C@H](C)[C@H](NC(=O)[C@H](Cc1ccccc1)NC(=O)[C@H](CCC(=O)O)NC(=O)[C@H](CCCCNC(=O)[C@@H](N)CCCCNC(=O)[C@@H](N)CCCCNC(=O)CC[C@H](NC(=O)CCCCCCCCCCCCCCCCC(=O)O)C(=O)O)NC(=O)[C@H](C)NC(=O)[C@H](C)NC(=O)[C@H](CCC(N)=O)NC(=O)CNC(=O)[C@H](CCC(=O)O)NC(=O)[C@H](CC(C)C)NC(=O)[C@H](Cc1ccc(O)cc1)NC(=O)[C@H](CO)NC(=O)[C@H](CO)NC(=O)[C@@H](NC(=O)[C@H](CC(=O)O)NC(=O)[C@H](CO)NC(=O)[C@@H](NC(=O)[C@H](Cc1ccccc1)NC(=O)[C@@H](NC(=O)CNC(=O)[C@H](CCC(=O)O)NC(=O)C(C)(C)NC(=O)[C@@H](N)Cc1c[nH]cn1)[C@@H](C)O)[C@@H](C)O)C(C)C)C(=O)N[C@@H](C)C(=O)N[C@@H](Cc1c[nH]c2ccccc12)C(=O)N[C@@H](CC(C)C)C(=O)N[C@H](C(=O)N[C@@H](CCCNC(=N)N)C(=O)NCC(=O)N[C@@H](CCCNC(=N)N)C(=O)N[C@@H](CCCCNC(=O)[C@@H](N)CCCCNC(=O)[C@@H](N)CCCCNC(=O)CC[C@H](NC(=O)CCCCCCCCCCCCCCCCC(=O)O)C(=O)O)C(=O)O)C(C)C` [Example 27, N^ε26-[(2S)-2-amino-6-[[(2S)-2-amino-6-[[(4S)-4-carboxy-4-(17-carboxyheptadecanoylamino)butanoyl]amino]hexanoyl]amino]hexanoyl], N^ε37-[(2S)-2-amino-6-[[(2S)-2-amino-6-[[(4S)-4-carboxy-4-(17-carboxyheptadecanoylamino)butanoyl]amino]hexanoyl]amino]hexanoyl]-[Aib^8,Arg^34,Lys^37]-GLP-1-(7-37)-peptide], the pEC50 at human GLP-1 receptor (cAMP formation in membranes from BHK467-12A cells expressing human GLP-1 receptor, read-out: In vitro potency (AlphaScreen) EC50) was 8.43. The compound further had a half-life in the data set “in vivo” of 21 h.
